Reference: patent US20240002437A1, “COMPOSITIONS AND METHODS OF TREATING INFLAMMATORY LUNG DISEASES” (priority 2020, published 2024)
“Also recorded” adds a separate entry of the source.

Columns and labels:
PAEC monolayers = assay: Trans endothelial resistance (TER) of PAEC monolayers; assay type: cell-based, ovine
Protocol: (§1) Primary cultures of ovine pulmonary arterial endothelial cells (PAEC) were isolated as described previously (L. K. Kelly, Am J Physiol Lung Cell Mol Physiol, 286(5), L984-91 (2004)). Briefly, cells were maintained in Dulbecco's modified Eagle medium (DMEM) supplemented with 10% fetal calf serum (Hyclone, Logan, UT), antibiotics/antimycotic (500 IU Penicillin, 500 μg/ml Streptomycin, 1.25 μg/ml Amphotericin B; MediaTech, Herndon, VA) at 37° C. in a humidified atmosphere with 5% CO2 and 95% air. Cells were used for experiments between passages 9-14, seeded at ˜50% confluence, and utilized when fully confluent.
Transendothelial Electrical Resistance (TER) was determined to characterize the integrity of PAEC monolayers using an electrical cell-substrate impedance sensing (ECIS) instrument ECIS Z-Theta (Applied BioPhysics, Troy, NY) as previously described (J. N. Gonzales, Vascul Pharmacol, 62(2), 63-71 (2014); S. Aggarwal, American Journal of Respiratory Cell and Molecular Biology, 50(3), 614-25 (2014)). The cells were plated in 8-well ECIS arrays (Applied BioPhysics) in complete cell culture medium (DMEM supplemented with 10% FBS) and grown to 100% confluency for 2 days. […] After a baseline measurement, the EC were treated with 4αPDD, PMA, the eNOS pT495 decoy peptide, or vehicle at the indicated concentrations, and changes in TER were recorded in real time.

[1] = test system: eNOS phosphorylation at T495; assay: Western blot of pT495-eNOS in PAEC; assay type: cell-based, ovine
Protocol: as §1
Protein extracts were prepared using lysis buffer (50 mM Tris-HCl, pH 7.6, 0.5% Triton X-100, 20% glycerol) containing HALT™ protease inhibitor cocktail (Pierce Laboratories, Rockford, IL). The extracts were then subjected to centrifugation (15,000 g for 15 min at 4° C.). Supernatant fractions were assayed for protein concentration using the Bradford reagent (Bio-Rad, Richmond, CA) then used for Western blot analyses. Protein extracts (25-50 μg) were separated on Long-Life 4-20% Tris-SDS-Hepes gels and electrophoretically transferred to IMMUNO-BLOT™ PVDF membrane (Bio-Rad Laboratories, Hercules, CA) Immunoblotting was then carried out using the appropriate antibodies in Tris-base buffered saline with 0.1% Tween 20 and 5% nonfat milk. After washing, the membranes were probed with horseradish peroxidase-conjugated goat antiserum to rabbit or mouse. Reactive bands were visualized using chemiluminescence (Super Signal West Femto; Pierce, Rockford, IL) on a LI-COR Odyssey image station (Lincoln, NE). Bands were quantified using LI-COR Image Station software. Loading was normalized by reprobing the membranes with an antibody specific to β-actin.

NOS-derived superoxide = NOS-derived superoxide by EPR (eNOS uncoupling) in PAEC; assay type: cell-based, ovine
Protocol: as §1
Superoxide levels were estimated by electron paramagnetic resonance (EPR) assay using the spin-trap compound 1-hydroxy-3-methoxycarbonyl-2,2,5,5-tetramethylpyrrolidine HCl (CMH, Axxora) as described previously. Superoxide in PAEC was trapped by incubating PAEC with 20 μl of CMH stock solution (20 mg/ml) for 1 h, followed by trypsinization and centrifugation at 500 g. The cell pellet was suspended in 35 μl DPBS and loaded into a capillary tube which was then analyzed with a MiniScope MS200 EPR machine (Magnettech, Berlin, Germany). Pre-incubating cells or tissue with 100 μM ethylisothiourea (ETU, Sigma-Aldrich) for 30 min followed by incubation with CMH measured NOS-derived superoxide. EPR spectra were analyzed using ANALYSIS v.2.02 software (Magnettech). Differences between levels of samples incubated in the presence and absence of ETU were used to determine NOS-dependent superoxide generation.

[2] = test system: mitochondrial redistribution of eNOS; assay: Immunofluorescent microscopy of eNOS mitochondrial redistribution in PAEC; assay type: cell-based, ovine
Protocol: as §1
PAEC were grown on cover glass for three days after reaching 100% confluence, and fixed with 4% paraformaldehyde (Thermo Fisher Scientific) for 30 min, permeabilized with 100% cold methanol at −20° C. for 5 min Cell then blocked with 1% BSA for 1 hour, and later incubated with first antibody overnight at 4° C. then secondary antibody at room temperature for 1 hour. Finally, cells were mounted on microscope slides using ProLong Glass Antifade Mountant, (Invitrogen, Carlsbad, CA, Cat #P36980). […] The images were analyzed with ImagePro Plus 7.0 (W. Casavan, Microscopy Today, 11(6), 48-50 (2003)) or ImageJ software to evaluate the colocalization of fluorescent.

TRPV4 = details: literature (Alvarez, Circ Res 2006); cited from earlier work
purified PKCα = purified PKCα (Homo sapiens, UniProt P17252); assay: In vitro peptide binding assay (biotinylated d-peptide, streptavidin capture, blot); details: biotinylated d-peptide 0 to 5 μg, PKC lipid activator, 1 hour room temperature
Protocol: Biotinylation of the decoy peptide (d-peptide) was performed using the Thermo Scientific EZ-Link Sulfo-NHS-LC-Biotinylation Kit. Briefly, Sulfo-NHS-LC-Biotin was mixed with d-peptide and the reaction mix was incubated at room temperature for 30 minutes. Different concentrations of the biotinylated d-peptide (0 to 5 μg) mixed with either purified eNOS protein or PKCα protein in a reaction mix containing PKC lipid activator were incubated at room temperature for 1 hour. Protein bound to the biotinylated d-peptide was captured using Thermo Scientific streptavidin agarose column and run on a 10% SDS-PAGE gel under reducing condition. The resulting blots were probed with antibodies to eNOS and PKCα protein respectively. Reactive bands were visualized using chemiluminescence on the LI-COR Odyssey image station.

CCCCCCCCCC(=O)O[C@@H]1[C@@H](C)[C@@]2(O)[C@@H](C=C(CO)C[C@@]3(O)C(=O)C(C)=C[C@@H]23)[C@@H]2C(C)(C)[C@]12OC(=O)CCCCCCCCC [4αPDD, 4α-Phorbol-12,13 didecanoate]
TER (barrier integrity) (PAEC monolayers; 4αPDD 0-15 μM): dose-dependent decrease in TER | eNOS phosphorylation at T495 ([1]; 4αPDD): increase in eNOS phosphorylation at T495 | NOS derived superoxide generation (eNOS uncoupling) (NOS-derived superoxide; 4αPDD): increases in NOS derived superoxide generation | mitochondrial redistribution of eNOS ([2]; 4αPDD): induces the mitochondrial redistribution of eNOS | lung injury on 4αPDD exposure (TRPV4): leads to Ca^2+ entry-dependent acute lung injury, disruption of the lung barrier, and alveolar flooding

HRKKRRQRRITRKKTFKEVA [d-peptide]
barrier disruption induced by 4αPDD (normalized TER) (PAEC monolayers; d-peptide plus 4αPDD): reduced | binding to purified PKCα (purified PKCα): binds efficiently; also recorded: able to bind efficiently to purified PKCα | PMA-mediated increase in pT495-eNOS ([1]; d-peptide 1 μg/ml, PMA 100 nm, 2 h): attenuated the PMA-mediated increase in pT495-eNOS | eNOS uncoupling (NOS-derived superoxide levels) (NOS-derived superoxide; d-peptide and PMA): reduced eNOS uncoupling | PMA-induced mitochondrial redistribution of eNOS ([2]; d-peptide and PMA): attenuated
